Experimental data published in the supplement of paper PMC8882468.

tested on: HCI-024 (organoid from a breast cancer xenograft); assay: CTG-3D luminescence at 96 h relative to day-0 seeding control (ratio to day 0); higher = more growth / less cytotoxicity; PDxO 3D drug screen, 96 h, CTG-3D normalised to day-0 seeding control.; details: 0.00025 µM; days in culture: 122

Structure (SMILES) | CTG-3D luminescence at 96 h
COc1cc2c(Oc3ccc4[nH]c(C)cc4c3F)ncnc2cc1OCCCN1CCCC1 [cediranib] | 1.9
CC(C)n1nc(-c2ccc3oc(N)nc3c2)c2c(N)ncnc21 [sapanisertib] | 2.85
Cc1cc(Nc2ncnc3ccc(NC4=NC(C)(C)CO4)cc23)ccc1Oc1ccn2ncnc2c1 [tucatinib] | 2.82
C[C@H](NC(=O)CCC(F)(F)F)C(=O)N[C@@H]1C(=O)N(CCO)c2ncccc2-c2ccccc21 [crenigacestat] | 1.76
C[C@]12CC[C@@H]3c4ccc(O)cc4C[C@@H](CCCCCCCCC[S+]([O-])CCCC(F)(F)C(F)(F)F)[C@H]3[C@@H]1CC[C@@H]2O (stereo partly specified) [fulvestrant] | 2.51
O=C(c1ccc(F)c(F)c1Nc1ccc(I)cc1F)N1CC(O)([C@@H]2CCCCN2)C1 [cobimetinib] | 2.28
O=C(/C=C/c1cccnc1)NCCCCC1CCN(C(=O)c2ccccc2)CC1 [FK866] | 2.32
CS(=O)(=O)c1ccc(C(=O)Nc2ccc(Cl)c(-c3ccccn3)c2)c(Cl)c1 [vismodegib] | 1.99
C=CCn1c(=O)c2cnc(Nc3ccc(N4CCN(C)CC4)cc3)nc2n1-c1cccc(C(C)(C)O)n1 [adavosertib] | 2.07

same assay, conditions: 0.00025 µM; days in culture: 163

Structure (SMILES) | CTG-3D luminescence at 96 h
COc1cc2c(Oc3ccc4[nH]c(C)cc4c3F)ncnc2cc1OCCCN1CCCC1 [cediranib] | 2.16
CC(C)n1nc(-c2ccc3oc(N)nc3c2)c2c(N)ncnc21 [sapanisertib] | 1.91
Cc1cc(Nc2ncnc3ccc(NC4=NC(C)(C)CO4)cc23)ccc1Oc1ccn2ncnc2c1 [tucatinib] | 1.9
C[C@H](NC(=O)CCC(F)(F)F)C(=O)N[C@@H]1C(=O)N(CCO)c2ncccc2-c2ccccc21 [crenigacestat] | 2.2
C[C@]12CC[C@@H]3c4ccc(O)cc4C[C@@H](CCCCCCCCC[S+]([O-])CCCC(F)(F)C(F)(F)F)[C@H]3[C@@H]1CC[C@@H]2O (stereo partly specified) [fulvestrant] | 1.9
O=C(c1ccc(F)c(F)c1Nc1ccc(I)cc1F)N1CC(O)([C@@H]2CCCCN2)C1 [cobimetinib] | 2.19
O=C(/C=C/c1cccnc1)NCCCCC1CCN(C(=O)c2ccccc2)CC1 [FK866] | 2.21
CS(=O)(=O)c1ccc(C(=O)Nc2ccc(Cl)c(-c3ccccn3)c2)c(Cl)c1 [vismodegib] | 2.3
C=CCn1c(=O)c2cnc(Nc3ccc(N4CCN(C)CC4)cc3)nc2n1-c1cccc(C(C)(C)O)n1 [adavosertib] | 2.21

same assay, conditions: 0.005 µM; days in culture: 105

Structure (SMILES) | CTG-3D luminescence at 96 h
COc1cc2c(Oc3ccc4[nH]c(C)cc4c3F)ncnc2cc1OCCCN1CCCC1 [cediranib] | 1.4
CC(C)n1nc(-c2ccc3oc(N)nc3c2)c2c(N)ncnc21 [sapanisertib] | 1.16
Cc1cc(Nc2ncnc3ccc(NC4=NC(C)(C)CO4)cc23)ccc1Oc1ccn2ncnc2c1 [tucatinib] | 1.37
C[C@H](NC(=O)CCC(F)(F)F)C(=O)N[C@@H]1C(=O)N(CCO)c2ncccc2-c2ccccc21 [crenigacestat] | 1.35
C[C@]12CC[C@@H]3c4ccc(O)cc4C[C@@H](CCCCCCCCC[S+]([O-])CCCC(F)(F)C(F)(F)F)[C@H]3[C@@H]1CC[C@@H]2O (stereo partly specified) [fulvestrant] | 1.32
O=C(c1ccc(F)c(F)c1Nc1ccc(I)cc1F)N1CC(O)([C@@H]2CCCCN2)C1 [cobimetinib] | 1.38
O=C(/C=C/c1cccnc1)NCCCCC1CCN(C(=O)c2ccccc2)CC1 [FK866] | 0.265
CS(=O)(=O)c1ccc(C(=O)Nc2ccc(Cl)c(-c3ccccn3)c2)c(Cl)c1 [vismodegib] | 1.53
C=CCn1c(=O)c2cnc(Nc3ccc(N4CCN(C)CC4)cc3)nc2n1-c1cccc(C(C)(C)O)n1 [adavosertib] | 1.14

same assay, conditions: 0.005 µM; days in culture: 122

Structure (SMILES) | CTG-3D luminescence at 96 h
COc1cc2c(Oc3ccc4[nH]c(C)cc4c3F)ncnc2cc1OCCCN1CCCC1 [cediranib] | 1.93
CC(C)n1nc(-c2ccc3oc(N)nc3c2)c2c(N)ncnc21 [sapanisertib] | 1.86
Cc1cc(Nc2ncnc3ccc(NC4=NC(C)(C)CO4)cc23)ccc1Oc1ccn2ncnc2c1 [tucatinib] | 2.36
C[C@H](NC(=O)CCC(F)(F)F)C(=O)N[C@@H]1C(=O)N(CCO)c2ncccc2-c2ccccc21 [crenigacestat] | 1.92
C[C@]12CC[C@@H]3c4ccc(O)cc4C[C@@H](CCCCCCCCC[S+]([O-])CCCC(F)(F)C(F)(F)F)[C@H]3[C@@H]1CC[C@@H]2O (stereo partly specified) [fulvestrant] | 2.43
O=C(c1ccc(F)c(F)c1Nc1ccc(I)cc1F)N1CC(O)([C@@H]2CCCCN2)C1 [cobimetinib] | 2.13
O=C(/C=C/c1cccnc1)NCCCCC1CCN(C(=O)c2ccccc2)CC1 [FK866] | 0.648
CS(=O)(=O)c1ccc(C(=O)Nc2ccc(Cl)c(-c3ccccn3)c2)c(Cl)c1 [vismodegib] | 2.14
C=CCn1c(=O)c2cnc(Nc3ccc(N4CCN(C)CC4)cc3)nc2n1-c1cccc(C(C)(C)O)n1 [adavosertib] | 1.99
